US7749996B2, “Heterotricyclic metalloprotease inhibitors” (Alantos Pharmaceutical Holdings, Inc., priority 2006, dated 2010)

How the values were obtained:
Type in all cases: biochemical
activated MMP-8 enzyme = molecular target: T1, activated MMP-8 enzyme (Homo sapiens, UniProt P22894); assay: Assay for determining MMP-8 inhibition (fluorescent substrate); conditions: Table 2, activity group
T1 construct: purchased Calbiochem 444229
Method: (§1) The typical assay for MMP-8 activity is carried out in assay buffer comprised of 50 mM Tris, pH 7.5, 150 mM NaCl, 5 mM CaCl2 and 0.05% Brij-35. Different concentrations of tested compounds are prepared in assay buffer in 50 μL aliquots. […] The mixture of enzyme and compound in assay buffer is thoroughly mixed and incubated for 10 min at 37° C. […] The time-dependent increase in fluorescence is measured at the 320 nm excitation and 390 nm emission by an automatic plate multireader at 37° C. The IC50 values are calculated from the initial reaction rates.

[1] = molecular target: T2, catalytic domain of MMP-3 enzyme (Homo sapiens, UniProt P08254); assay: Assay for determining MMP-3 inhibition (NFF-3 fluorescent substrate); conditions: Table 3, activity group
T2 construct: stock solution of the catalytic domain of MMP-3 enzyme (Biomol, Cat. No. SE-109); purchased Biomol SE-109
Method: as §1, with “MMP-3” for “MMP-8”, “MES,” for “Tris,”, “6.0, 10” for “7.5, 150 mM NaCl, 5”, “room temperature.” for “37° C.”, “330” for “320”, “multireader.” for “multireader at 37° C.”

[2] = molecular target: T3, catalytic domain of MMP-13 enzyme (Homo sapiens, UniProt P45452); assay: Assay for determining MMP-13 inhibition (fluorescent substrate); conditions: Table 1, activity group
T3 construct: stock solution of catalytic domain of MMP-13 enzyme (produced by Alantos or commercially available from Invitek (Berlin), Cat.# 30100812); purchased Invitek (Berlin) 30100812
Method: as §1, with “MMP-13” for “MMP-8”, “room temperature.” for “37° C.”, “by” for “by an”, “multireader.” for “multireader at 37° C.”

T2 sequence (P08254 100-272 limits assumed): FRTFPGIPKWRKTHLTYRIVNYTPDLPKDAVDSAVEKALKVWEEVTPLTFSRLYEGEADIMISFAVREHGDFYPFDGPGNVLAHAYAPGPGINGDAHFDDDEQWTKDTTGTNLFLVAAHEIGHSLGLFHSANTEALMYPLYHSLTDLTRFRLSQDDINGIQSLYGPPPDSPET
T1 sequence (P22894 101-467): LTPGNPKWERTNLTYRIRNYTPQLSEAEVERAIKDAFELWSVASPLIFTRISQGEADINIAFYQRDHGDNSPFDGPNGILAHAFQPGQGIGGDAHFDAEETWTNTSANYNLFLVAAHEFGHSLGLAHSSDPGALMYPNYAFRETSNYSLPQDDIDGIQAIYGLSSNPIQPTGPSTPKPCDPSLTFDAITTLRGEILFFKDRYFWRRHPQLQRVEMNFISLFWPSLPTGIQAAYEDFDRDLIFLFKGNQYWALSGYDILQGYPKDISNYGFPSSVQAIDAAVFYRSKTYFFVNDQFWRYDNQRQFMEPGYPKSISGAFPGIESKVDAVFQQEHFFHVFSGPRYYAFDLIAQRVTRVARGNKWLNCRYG

Row | SMILES | IC50 (activated MMP-8 enzyme) | IC50 [1] | IC50 [2]
1 | CC1SCc2sc3nc(C(=O)NCc4ccc5c(c4)CN(c4c(N)c(=O)c4=O)CC5)[nH]c(=O)c3c21 (stereo not drawn) [2/132] | < 250 nM | 250 to 20000 nM | < 100 nM
2 | O=C1COc2ccc(CNC(=O)c3nc4sc5c(c4c(=O)[nH]3)CCOCC5)cc2N1 [2/211] | < 250 nM | 250 to 20000 nM | < 100 nM
3 | O=C(O)CNC(=O)CC1CCCc2sc3nc(C(=O)NCc4ccc5c(c4)NC(=O)CO5)[nH]c(=O)c3c21 (stereo not drawn) [Example 15] | < 250 nM | 250 to 20000 nM | < 100 nM
4 | CCOC(=O)C1CCc2sc3nc(C(=O)NCc4ccc5c(c4)CN(c4c(N)c(=O)c4=O)CC5)[nH]c(=O)c3c2C1 (stereo not drawn) [2/209] | < 250 nM | 250 to 20000 nM | < 100 nM
5 | O=C1COc2ccc(CNC(=O)c3nc4sc5c(c4c(=O)[nH]3)CCCS5(=O)=O)cc2N1 [Example 22] | 250 to 20000 nM | 250 to 20000 nM | < 100 nM
6 | N#CC1CCc2sc3nc(C(=O)NCc4ccc5c(c4)NC(=O)CO5)[nH]c(=O)c3c21 (stereo not drawn) [Example 19] | < 250 nM | 250 to 20000 nM | < 100 nM
7 | O=C1COc2ccc(CNC(=O)c3nc4sc5c(c4c(=O)[nH]3)CCS(=O)(=O)C5)cc2N1 [2/103] | < 250 nM | < 250 nM | < 100 nM
